Each structure is given as a SMILES string.

The test system of this test is G. duodenalis BRIS/91/HEPU/1279. Nature of the test: Primary Giardia screen at 10 µM (live-cell imaging, automated counting). It is filed as cell-based, Giardia duodenalis. The following applies: 48 h, first singlicate assay. A digest of the protocol:
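Singlicate, 10 μM final, 0.2% DMSO; sealed chambers, 3% O2/5% CO2/N2. Counts by live-cell imaging at 24 h and 48 h. % growth vs vehicle, media background subtracted; Z' per plate.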
For the molecule `Cc1cn2c(S(=O)(=O)N3CCN(c4ccc(F)cc4)CC3)c(C(C)C)nc2s1` [SN00799325], the “% Inhibition n=1 48h” value worked out at 19.4%.
The same measure for `COc1ccc(CNS(=O)(=O)c2c(C)nc3sc(C)nn23)cc1` [SN00799344]: 4.3%; for `CC(=O)c1cccc(NC(=O)CN2CCC(c3nc(-c4ccccc4)no3)CC2)c1` [SN00799373]: 0.0%; for `O=C(CN1CCC(c2nc(-c3ccc(F)cc3)no2)CC1)NCc1ccccc1` [SN00799393]: 0.0%.
Take `O=C(CCn1ccn2nc(-c3ccccc3Cl)cc2c1=O)NCc1ccc(F)cc1` [SN00799415]: the “% Inhibition n=1 48h” value was 0.0%.
The same measure for `COc1ccc(-c2cccc(NC(=O)c3ccccc3Br)c2)nn1` [SN00799416]: 16.0%.
With `Cc1nc(-c2ccccn2)cc2nn(CC(=O)N3CCC(Cc4ccccc4)CC3)c(=O)n12` [SN00799441], the “% Inhibition n=1 48h” value was 4.9%.
For `Cc1ccc(NC(=O)c2cnc3c(c2)c(=O)n(C)c(=O)n3-c2ccccc2)cc1` [SN00799453], the “% Inhibition n=1 48h” value stood at 0.0%.
Turning to `Cc1ccc(NC(=O)CN2N=C(C(=O)Nc3ccc(F)cc3)CCC2=O)cc1F` [SN00799502], the “% Inhibition n=1 48h” value is listed as 8.0%.
The same measure for `O=C(COc1ccc(F)cc1)N1CCN(c2nc(CN3CCCC3)cs2)CC1` [SN00799511]: 1.1%.
The same measure for `Cc1cccc(-c2nc3sc(N4CCCCC4)nn3c2NC(=O)C2CC2)c1` [SN00799546]: 23.2%; for `CN(Cc1ccccc1)C(=O)c1cccc2c1CCN2C(=O)Nc1ccccc1` [SN00799558]: 0.0%.
For `Cn1c(C(=O)N2CCN(c3ccccc3)CC2)cc2c1CCN(Cc1ccccc1)C2` [SN00799590], the “% Inhibition n=1 48h” value is given as 1.6%.
Consider `Cc1cccc(CN2CCc3c(cc(C(=O)NC(C)(C)C)n3C)C2)c1` [SN00799594], for which the “% Inhibition n=1 48h” value was found to be 0.0%.
The same measure for `Cc1csc(-c2ccc(CNC(=O)c3n[nH]c4ccccc34)cc2)n1` [SN00799624]: 25.2%.
The same measure for `CSc1ccc(NC(=O)c2cn(C)c3ncccc23)cc1` [SN00799688]: 9.5%; for `CCOCCn1c(N2CCCCC2)nc(C)cc1=O` [SN00799709]: 33.8%.
The same measure for `O=C(Nc1cnc(-c2ccccc2)nc1)c1ccccc1C(F)(F)F` [SN00799772]: 0.0%.
As to `CN1CCCc2cc(C(=O)NCc3cccs3)sc21` [SN00799810], the “% Inhibition n=1 48h” value was 0.0%.
On to `CCOc1ccc2nc(C(=O)N3CCN(c4cccc(C)c4C)CC3)cn2n1` [SN00799885], for which the “% Inhibition n=1 48h” value came out at 9.3%.
The same measure for `O=C(c1cn2ccccc2n1)N1CCN(c2ccccc2F)CC1` [SN00799900]: 4.9%.
The same measure for `CSc1ccc(CNC(=O)c2cn3cc(C)ccc3n2)cc1` [SN00799926]: 26.2%; for `CCCn1ccc2sc(C)c(C(=O)NC3CCCCC3)c2c1=O` [SN00799943]: 16.0%.
The same measure for `Cc1sc2ccn(CC(C)C)c(=O)c2c1C(=O)NCCN1CCCCC1` [SN00799956]: 23.1%; for `CNc1cccnc1OC1CCN(C(=O)CCc2nc3ccccc3[nH]2)C1` (stereo not drawn) [SN00799967]: 11.3%; for `O=S(=O)(Nc1ccc(OC2CCNCC2)nc1)c1ccccc1` [SN00799991]: 0.0%.
`COCC(=O)N1CCC(Oc2ncccc2C(=O)N(C)C)CC1` [SN00800001]: the “% Inhibition n=1 48h” value was found to be 4.8%.
The same measure for `CN1CCC(Oc2ncccc2C(=O)N2CCOCC2)CC1` [SN00800013]: 15.5%.
The same measure for `Cc1ccc(C(=O)N2CCC(Oc3ncccc3C(=O)N3CCCCC3)C2)c(C)c1` (stereo not drawn) [SN00800036]: 0.0%.
Take `CN(C)C(=O)c1ccc(OC2CCN(C(=O)c3ccco3)CC2)nc1` [SN00800077]: the “% Inhibition n=1 48h” value is 13.6%.
In the case of `CN(C)C(=O)c1ccc(OC2CCN(Cc3ccccn3)C2)nc1` (stereo not drawn) [SN00800120], the “% Inhibition n=1 48h” value is 6.6%.
The same measure for `O=C(c1ccoc1)N1CCC(Oc2nccnc2N2CCc3ccccc32)C1` (stereo not drawn) [SN00800151]: 22.8%; for `COc1cccc(N2CCN(C(=O)C3CCN(c4nc(NC(C)=O)ns4)CC3)CC2)c1` [SN00800160]: 16.2%.
The same measure for `CC(=O)Nc1nsc(N2CCCC(C(=O)NCc3ccccc3Cl)C2)n1` (stereo not drawn) [SN00800180]: 5.9%.
As to `CCN1c2cc(Cl)ccc2C(=O)NC12CCN(C(=O)Nc1ccc3c(c1)OCO3)CC2` [SN00800192], the “% Inhibition n=1 48h” value was 8.9%.
`CCc1nn(CC)c(=O)c2cc(S(=O)(=O)N3CCOCC3)cn12` [SN00800228]: the “% Inhibition n=1 48h” value came out at 11.8%.
For `CN(C)C(=O)c1[nH]nc2c1CN(C(=O)CCc1ccccc1)CC2` [SN00800269], the “% Inhibition n=1 48h” value is recorded as 0.0%.
Turning to `O=C(c1cccc(N2CCNC(c3ccccc3)C2)n1)N1CCN(c2ccccc2)CC1` (stereo not drawn) [SN00800322], the “% Inhibition n=1 48h” value was 13.5%.
The same measure for `O=C(c1ccccc1)N1CCN(c2cc(-c3ccc(Cl)cc3)n[nH]2)CC1` [SN00800335]: 14.4%.
The same measure for `COc1ccc(-c2cc(N3CCN(C(=O)Cc4ccc(F)cc4)CC3)[nH]n2)cc1` [SN00800353]: 0.0%; for `COc1ccc(-c2cc(N3CCC(NC(=O)Cc4ccccc4)CC3)[nH]n2)cc1` [SN00800379]: 0.0%; for `O=C(NC1CCN(c2cc(-c3cccs3)n[nH]2)C1)c1ccc2[nH]cnc2c1` (stereo not drawn) [SN00800411]: 29.6%.
The same measure for `CC1CCN(c2nc(C(=O)NCCc3ccncc3)nc3c2cnn3C)CC1` [SN00800416]: 9.4%; for `CCOC(=O)c1ccc(NC(=O)c2nc(C)n(C3CCN(C(C)=O)CC3)c2C)cc1` [SN00800452]: 13.2%.
With `O=C1CC(C(=O)N2CCN(c3ccccc3)CC2)CN1CCc1ccccc1` (stereo not drawn) [SN00800474], the “% Inhibition n=1 48h” value turned out to be 6.2%.
The same measure for `CCc1noc(C2(NC(=O)c3cc(-c4ccccc4)n[nH]3)CCCCC2)n1` [SN00800487]: 0.0%; for `Cc1ccc(CNC(=O)N2CCCN(c3ncccc3-c3nc(C4CC4)no3)CC2)cc1` [SN00800535]: 34.3%.
The same measure for `Cc1nnc(-c2nnc(NCc3ccccc3)c3ccccc23)o1` [SN00800540]: 1.6%.
With `CCc1nnc(-c2nnc(NCc3ccc4c(c3)OCO4)c3ccccc23)o1` [SN00800558], the “% Inhibition n=1 48h” value turned out to be 0.0%.
In the case of `CCn1ccc(C(=O)Nc2ccc3c(c2)Sc2ncccc2C(=O)N3C)n1` [SN00800580], the “% Inhibition n=1 48h” value was 19.0%.
The same measure for `Cc1cc(NS(=O)(=O)c2cc(-c3[nH]ncc3C(=O)N3CCCC3)oc2C)ccc1F` [SN00800668]: 0.0%; for `CCOC(=O)CCNC(=O)N1CCc2c(nc3cc(-c4ccccc4Cl)[nH]n3c2=O)C1` [SN00800844]: 13.6%; for `COc1ccc(-c2cc3nc4c(c(=O)n3[nH]2)CNCC4)cc1` [SN00800876]: 0.0%.
The same measure for `Cc1ccc(CNC(=O)N2CCN(C3=CC4=NCC(C)N4C=N3)CC2)cc1` (stereo not drawn) [SN00800883]: 11.9%.
`CCC1CN2C=NC(N3CCN(C(=O)CCc4ccccc4OC)CC3)=CC2=N1` (stereo not drawn) [SN00800900]: the “% Inhibition n=1 48h” value came to 25.4%.
The same measure for `O=C(N[C@H]1C[C@@H]2C[C@H]1N(C(=O)Nc1ccc3c(c1)CCC3)C2)c1ccccc1` [SN00800945]: 6.6%.
The same measure for `O=C(N[C@H]1C[C@@H]2C[C@H]1CN2S(=O)(=O)c1ccc2c(c1)CCCC2)c1cccnc1` [SN00800980]: 0.6%; for `O=C(Cc1ccccc1F)N1CCC(Nc2cccnc2)C1` (stereo not drawn) [SN00801060]: 18.5%.
The same measure for `CCn1nccc1C(=O)NC1CCN(c2nccnc2OC)C1` (stereo not drawn) [SN00801093]: 0.0%; for `O=C(c1cccc2[nH]ccc12)N1CCC(c2nc(-c3ccccc3)no2)C1` (stereo not drawn) [SN00801115]: 23.0%.
Take `CCn1cc(CN2CCC(OCc3nc(C4CC4)no3)CC2)cn1` [SN00801138]: the “% Inhibition n=1 48h” value amounted to 0.0%.
The same measure for `O=C(c1ccco1)N1CCC(OCc2nc(-c3ccncc3)no2)CC1` [SN00801147]: 18.6%; for `Cc1noc(COC2CCCN(C(=O)c3nn(C)c4ccccc34)C2)n1` (stereo not drawn) [SN00801154]: 0.0%.
The same measure for `COc1cccc(C(=O)N(CC2CCOC2)C2CC2)c1` (stereo not drawn) [SN00801182]: 0.0%.
The same measure for `CN(CC1CCOC1)C(=O)Cc1ccccc1` (stereo not drawn) [SN00801209]: 0.0%.
With `CN(C)[C@@H]1CN(C(=O)c2ccco2)CC[C@]1(O)c1ccccc1` [SN00801222], the “% Inhibition n=1 48h” value is reported as 3.1%.
The same measure for `CN(C)CC1CN(S(=O)(=O)c2ccccc2)CC12CCOCC2` (stereo not drawn) [SN00801264]: 0.0%; for `CN(C)CC1CN(S(=O)(=O)C2CC2)CC12CCOCC2` (stereo not drawn) [SN00801268]: 16.1%.
The same measure for `CN(C)[C@@H]1CN(Cc2ccc3[nH]ccc3c2)CC[C@H]1CO` [SN00801277]: 6.2%; for `CN1C(=O)CC[C@]2(CNC(=O)C3(c4ccccc4)CC3)CCC[C@@H]12` [SN00801306]: 21.4%; for `COCC1CN(C(=O)c2ccc(OC)cc2)CC12CCOCC2` (stereo not drawn) [SN00801332]: 24.3%.
In the case of `CC1(c2nc(C3CC3)no2)CCCN(C(=O)CCC2CCCC2)C1` (stereo not drawn) [SN00801392], the “% Inhibition n=1 48h” value was 3.8%.
The same measure for `COc1ccc(C2CCC(=O)N2CCN2CCOCC2)cc1` (stereo not drawn) [SN00801430]: 34.6%; for `CCC(=O)N1CCc2c(sc3ncnc(N(C)C4CCN(C)CC4)c23)C1` [SN00801485]: 0.0%.
As for `CC(C)S(=O)(=O)N1CCC(N(C)C2CCOCC2)CC1` [SN00801518], the “% Inhibition n=1 48h” value turned out to be 0.0%.

For the origin of these results see paper PMC9775191, “A Subset Screen of the Compounds Australia Scaffold Library Identifies 7-Acylaminodibenzoxazepinones as Potent and Selective Hits for Anti-Giardia Drug Discovery” (Biomedicines, 2022).
